For the data set the following is noted: DSC.

Numbers after ± are expanded uncertainties.

In the case of `O=C(O)c1ccccc1Nc1cccc(C(F)(F)F)c1` [2-[[3-(trifluoromethyl)phenyl]amino]benzoic acid], the Triple point temperature reads like this: (Crystal 1) 410.95 ± 2.1 K; (Metastable crystal) 409.15 ± 2.1 K.

The record behind these values is the NIST ThermoML archive (doi:10.1021/acs.jced.9b00278).
